# Results as given in patent US9120798B2, “Amino-heteroaryl 7-hydroxy-spiropiperidine indolinyl antagonists of P2Y1 receptor” (priority 2012, dated 2015).
# Read-outs that look alike come from different tables or passages of the source.
# What was measured:
# [1] = biological target: cloned human P2Y1 receptors (Homo sapiens (Human), UniProt P47900); assay: Binding Assay A: membrane binding assay, [33P] 2MeS-ADP, WGA FlashPlates
# Source text: A membrane binding assay was used to identify inhibitors of [^33P] […] The cDNA clone for human P2Y1 was obtained from Incyte Pharmaceuticals and its sequence confirmed by established techniques (for a compendium of techniques used see Ausubel, F. et al. Current Protocols in Molecular Biology, John Wiley and Sons, NY, N.Y. (1995)). The essential coding sequences were subcloned into pCDNA 3.1 (Invitrogen) to produce a P2Y1 expression construct. This construct was then transfected into the human embryonic kidney cell line HEK-293 and stable transfectants selected in GENETICIN® (G418 sulfate; Life Technologies). […] Membranes were prepared by growing HEK293 #49 in 150 mm dishes in DMEM/10% FBS in the presence of 1 mg/ml G418 until cells were 80-90% confluent. Plates were then washed with cold (4° C.) D-PBS twice and cells harvested by scraping into 10 mL D-PBS. Cells were pelleted by centrifugation (1,000 g, 10 min, 4° C.) and the resulting pellet resuspended in Lysis Buffer (10 mM Tris (7.4), 5 mM MgCl2 containing Complete protease inhibitor cocktail (Roche Cat #1873580) as recommended by the manufacturer). The suspension was then homogenized in a Dounce homogenizer (10-15 strokes; B pestle, on ice) and the homogenate spun at 1,000 g, 4° C., 5 min to pellet large debris. The supernatant was centrifuged at 150,000 g, 4° C., for 1 hour and the resulting membrane pellet resuspended in 0.5-1 mL of Buffer B (15 mM HEPES (7.4), 145 mM NaCl, 0.1 mM MgCl2, 5 mM EDTA, 5 mM KCl) and stored at −70° C. until used.
# Binding reactions were performed in WGA FlashPlates (PerkinElmer Life Sciences, Cat # SMP105A) in a volume of 200 μL containing ˜45 fmol of P2Y1 receptor (5 μg of total protein), 0.5 nM [^33P] […] Reactions were allowed to proceed to completion at room temperature for 1 hour and then the aqueous solution aspirated. Plates were sealed and the residual [^33P] bound to the plate determined by scintillation counting.
# [2] = test system: human platelet rich plasma (PRP); assay: ADP induced platelet aggregation assay; type: cell-based; details: 5 min, read-out: PA IC50 (μM) @ 10 μM ADP
# Description: ADP Induced Platelet Aggregation Assay
# The ability of P2Y1 antagonists covered in the present invention to inhibit platelet aggregation induced by 10 μM ADP was tested using human platelet rich plasma (PRP) as described in Platelet Protocols: Research and Clinical Laboratory Procedures (White, M. M. et al., Academic Press (1999)). Human blood was collected in 30 μM (final concentration in blood) argatroban (GSK) as the anticoagulant at a ratio of 1 ml per 9 ml of blood. The PRP was isolated by centrifugation at 170 g for 12 minutes. The platelet poor plasma (PPP) was used as the blank for optical aggregometry. Compounds of the present invention in DMSO solution was preincubated with 250 μl PRP at 37° C. for 1 minute with stirring speed of 1000 rpm. Aggregation was initiated by addition of 2.5 μl of 1 mM ADP (Chrono-log, Havertown, Pa.) for a final ADP concentration of 10 uM. Platelet aggregation was monitored using Optical Aggregometer (Chrono-log, Havertown, Pa.) and the area under the curve (AUC) at 5 minute was measured. IC50 was calculated using vehicle control as 0% inhibition.
# The platelet aggregation assay measures the in vitro antiplatelet activity of a compound in platelet rich plasma. The assay is sensitive to plasma protein binding, and is believed to be a better predictor of actual in vivo activity.
# [3] = starred values, FlashPlate, 0.5 nM [33P] 2MeS-ADP, Cheng-Prusoff, read-out: P2Y1 Ki (nM), *Using binding assay A
# [4] = read-out: P2Y1 Ki (nM), *Using binding assay A
# Sequence of cloned human P2Y1 receptors (P47900 whole entry): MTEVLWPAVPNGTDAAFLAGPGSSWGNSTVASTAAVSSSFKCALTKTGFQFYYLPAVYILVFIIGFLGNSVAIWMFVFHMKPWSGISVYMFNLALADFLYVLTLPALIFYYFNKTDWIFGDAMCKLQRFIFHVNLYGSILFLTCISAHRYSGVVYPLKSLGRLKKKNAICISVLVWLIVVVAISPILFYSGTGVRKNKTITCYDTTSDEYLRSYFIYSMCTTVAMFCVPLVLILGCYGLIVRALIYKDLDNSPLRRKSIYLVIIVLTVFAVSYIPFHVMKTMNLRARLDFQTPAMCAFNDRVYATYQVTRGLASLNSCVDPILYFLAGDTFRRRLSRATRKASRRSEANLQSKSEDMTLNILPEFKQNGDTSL
Compound,"Ki [1, 3] [nM]",IC50 [2] [µM],Ki [1] [nM],"Ki [1, 4] [nM]"
"CC(C)(C)CN1CCC2(CC1)CN(c1ccccc1Nc1nnc(-c3cnccn3)s1)c1c(O)ccc(Cl)c12 [Example 12, 4-Chloro-1′-neopentyl-1-(2-((5-(pyrazin-2-yl)-1,3,4-thiadiazol-2-yl)amino)phenyl)spiro[indoline-3,4′-piperidin]-7-ol]",6.5,0.9,,
"CC(C)(C)CN1CCC2(CC1)CN(c1ccccc1Nc1nnc(-c3cccnc3)s1)c1c(O)ccc(Cl)c12 [Example 9, 4-Chloro-1′-neopentyl-1-(2-((5-(pyridin-3-yl)-1,3,4-thiadiazol-2-yl)amino)phenyl)spiro[indoline-3,4′-piperidin]-7-ol]",,8.5,24.3,
"Cc1cc(-c2nnc(Nc3ccccc3N3CC4(CCN(CC(C)(C)C)CC4)c4c(Cl)ccc(O)c43)s2)n(C)n1 [Example 13, 4-Chloro-1-(2-((5-(1,3-dimethyl-1H-pyrazol-5-yl)-1,3,4-thiadiazol-2-yl)amino)phenyl)-1′-neopentylspiro[indoline-3,4′-piperidin]-7-ol]",6.6,0.9,,
"CC(C)(C)CN1CCC2(CC1)CN(c1ccccc1Nc1nnc(C3CCOCC3)s1)c1c(O)ccc(Cl)c12 [Example 14, 4-Chloro-1′-neopentyl-1-(2-((5-(tetrahydro-2H-pyran-4-yl)-1,3,4-thiadiazol-2-yl)amino)phenyl)spiro[indoline-3,4′-piperidin]-7-ol]",,23,,155
"COC(=O)c1sc(Nc2ccccc2N2CC3(CCN(CC(C)(C)C)CC3)c3ccccc32)nc1C [Comparator 3, reference compound]",,> 40,,18
"CC(C)(C)CN1CCC2(CC1)CN(c1ccccc1Nc1nnc(-c3ccc(C(F)(F)F)cc3)s1)c1c(O)ccc(Cl)c12 [Example 7, 4-Chloro-1′-neopentyl-1-(2-(5-(4-(trifluoromethyl)phenyl)-1,3,4-thiadiazol-2-ylamino)phenyl)spiro[indoline-3,4′-piperidin]-7-ol]",,2.7,3.3,
